Columns and labels:
[1] = Primary screening of photostability of the CyNA library (time-course fluorescence, 8 h); assay type: physicochemical; set-up: F/Fo, fluorescent intensity at 8 hours vs 0 hours: unit: %; details: 10 μM in HEPES 100 mM pH 7.4, 2% DMSO
Method: As a primary evaluation of photo stability, the decrease in fluorescence intensity of the 80 CyNA compounds was measured (see Table 2). The average decrease in fluorescence intensity after 8 hours of irradiation by a xenon lamp was approximately 18%. A subset of the most photostable compounds (i.e., F/Fo reported in Table 2 was greater than or equal to 95) was examined under stronger irradiation in various buffers.
10-μM CyNA solutions in 100 mM HEPES buffer (pH 7.4) containing 2% DMSO were placed in a 96-well black plate, and fluorescence intensity measurements were recorded every 10 minutes for a total period of 8 hours (excitation-emission: 790-820 nm). A subset of fourteen compounds selected according to their F8h/Fo quotients, quantum yields and maximum relative fluorescence units (RFU) values was further evaluated in a secondary screening

[2] = Absorbance and fluorescence maximum wavelengths and quantum yields of the CyNA library; assay type: physicochemical; details: for λabs, absorbance maximum wavelength / λem, fluorescence maximum wavelength: CyNA library; for φ, quantum yield: in DMSO, Cardiogreen as standard
Method: Since the k values of the different CyNA compounds indicated some dependency on the chemical structure of the amine, the CyNA scaffold was derivatized with a broad range of primary amines (FIGS. 4A-4C). The fluorescence properties of the 80-member CyNA library were measured. The absorption maximum wavelengths ranged from 802 nm to 806 nm, emission maximum wavelengths ranged from 817 nm to 823 nm, and the average quantum yield was approximately 0.10 (Table 2).
All the chemicals (building block amines plus others) and solvents were purchased from Sigma Aldrich, Alfa Aesar, Fluka, MERCK or Acros, and used without further purification. ^1H-NMR and ^13C-NMR spectra were recorded on Bruker Avance 300 NMR and 500 NMR spectrometers, and chemical shifts are expressed in parts per million (ppm). High-resolution mass spectrometry (HRMS) data was recorded on a Micromass VG 7035. Photobleaching experiments were performed using a UVP Blak-Ray® B-100AP high intensity UV lamp (100 W, 365 nm) Spectroscopic and quantum yield data were measured on a SpectraMax M2 spectrophotometer (Molecular Devices), and the data analysis was performed using GraphPrism 5.0. Photobleaching measurements were performed using an Eclipse Ti-U Nikon microscope (filter cube: 750/800) attached to Ti:sappire oscillator that operated in continuous wave mode, and the data was processed using the software NIS-Elements 3.10. In vivo images were taken in an IVIS Spectrum imaging system (Caliper Life Sciences).

| Structure (SMILES) | F/Fo, fluorescent intensity at 8 hours vs 0 hours [1] | max RFU, maximum relative fluorescence units [1] | λabs, absorbance maximum wavelength [2] [nm] | λem, fluorescence maximum wavelength [2] [nm] | φ, quantum yield [2] |
| --- | --- | --- | --- | --- | --- |
| CCCN1/C(=C/C=C2\CCCC(/C=C/C3=[N+](CCC)c4ccccc4C3(C)C)=C2N(CCCN2CCCC2=O)C(C)=O)C(C)(C)c2ccccc21 [CyNA-11] | 90 | 1250.1 | 802 | 820 | 0.11 |
| CCCCCCCCCCCCCCN(C(C)=O)C1=C(/C=C/C2=[N+](CCC)c3ccccc3C2(C)C)CCC/C1=C\C=C1\N(CCC)c2ccccc2C1(C)C [CyNA-28] | 87 | 23.9 | 804 | 818 | 0.05 |
| CCCN1/C(=C/C=C2\CCCC(/C=C/C3=[N+](CCC)c4ccccc4C3(C)C)=C2N(Cc2ccc3c(c2)OCO3)C(C)=O)C(C)(C)c2ccccc21 [CyNA-49] | 95 | 851.3 | 804 | 818 | 0.10 |
| CCCCCCCCCCCCCN(C(C)=O)C1=C(/C=C/C2=[N+](CCC)c3ccccc3C2(C)C)CCC/C1=C\C=C1\N(CCC)c2ccccc2C1(C)C [CyNA-55] | 100 | 162.3 | 804 | 819 | 0.13 |
| CCCN1/C(=C/C=C2\CCCC(/C=C/C3=[N+](CCC)c4ccccc4C3(C)C)=C2N(Cc2c(F)cccc2F)C(C)=O)C(C)(C)c2ccccc21 [CyNA-80] | 93 | 734.9 | 804 | 817 | 0.08 |
| CCCN1/C(=C/C=C2\CCCC(/C=C/C3=[N+](CCC)c4ccccc4C3(C)C)=C2N(CCC(C)(C)C)C(C)=O)C(C)(C)c2ccccc21 [CyNA-92] | 64 | 420.2 | 805 | 821 | 0.09 |
| CCCN(C(C)=O)C1=C(/C=C/C2=[N+](CCC)c3ccccc3C2(C)C)CCC/C1=C\C=C1\N(CCC)c2ccccc2C1(C)C [CyNA-95] | 91 | 1027.9 | 806 | 818 | 0.09 |
| CCCN1/C(=C/C=C2\CCCC(/C=C/C3=[N+](CCC)c4ccccc4C3(C)C)=C2N(CCC(c2ccccc2)c2ccccc2)C(C)=O)C(C)(C)c2ccccc21 [CyNA-100] | 63 | 333.8 | 804 | 819 | 0.08 |
| CCCN1/C(=C/C=C2\CCCC(/C=C/C3=[N+](CCC)c4ccccc4C3(C)C)=C2N(Cc2ccccc2C)C(C)=O)C(C)(C)c2ccccc21 [CyNA-101] | 86 | 693.9 | 806 | 822 | 0.08 |
